This is an account of results in patent publication US20100303758A1, “Novel Glucocorticoid Receptor Agonists” (priority 2009, published 2010).

The target in assay [1] is T1, human GR (Homo sapiens, UniProt P04150).
T1 construct: SW1353 naturally expresses human GR; endogenous in cells; host or cells: human chondrosarcoma cell-line SW1353 stably transfected with an MMTV-luciferase reporter construct
T1 sequence (P04150 1-777): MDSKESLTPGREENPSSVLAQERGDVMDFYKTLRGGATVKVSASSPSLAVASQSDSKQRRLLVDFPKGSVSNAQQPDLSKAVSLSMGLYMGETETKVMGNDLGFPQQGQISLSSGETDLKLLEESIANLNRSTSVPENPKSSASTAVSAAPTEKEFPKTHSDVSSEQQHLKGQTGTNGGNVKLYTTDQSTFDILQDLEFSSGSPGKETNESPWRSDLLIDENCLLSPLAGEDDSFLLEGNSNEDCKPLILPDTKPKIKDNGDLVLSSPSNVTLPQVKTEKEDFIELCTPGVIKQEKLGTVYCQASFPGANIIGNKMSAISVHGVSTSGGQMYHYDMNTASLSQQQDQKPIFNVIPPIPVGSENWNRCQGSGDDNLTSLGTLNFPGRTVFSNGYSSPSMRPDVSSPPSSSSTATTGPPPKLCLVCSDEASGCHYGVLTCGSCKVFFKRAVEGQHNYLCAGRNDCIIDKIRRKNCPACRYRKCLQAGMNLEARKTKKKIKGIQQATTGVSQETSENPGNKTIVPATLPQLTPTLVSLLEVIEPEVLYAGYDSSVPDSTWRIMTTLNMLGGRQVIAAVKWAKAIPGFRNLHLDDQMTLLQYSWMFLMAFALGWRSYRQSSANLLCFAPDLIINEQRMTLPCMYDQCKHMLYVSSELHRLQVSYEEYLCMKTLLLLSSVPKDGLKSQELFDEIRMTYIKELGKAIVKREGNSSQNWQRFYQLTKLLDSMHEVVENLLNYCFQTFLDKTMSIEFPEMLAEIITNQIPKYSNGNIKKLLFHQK
Briefly: GR agonist potency, MMTV-luciferase reporter in SW1353 cells. It is filed as cell-based. Particulars: human chondrosarcoma cell-line SW1353 stably transfected with MMTV-luciferase reporter; approx. 18 hours; data as percentage of 1 μM dexamethasone positive control. The protocol:
Glucococorticoid receptor (GR) agonist potency was determined in the human chondrosarcoma cell-line SW1353 stably transfected with an MMTV-luciferase reporter construct. SW1353 naturally expresses human GR, which on binding a glucocorticoid agonist activates glucocorticoid response elements within the MMTV promoter, driving expression of the luciferase gene.
Frozen SW1353 cells were revived in DMEM medium, without sodium pyruvate or phenol red, supplemented with 2 mM L-glutamine, 1 μg/ml insulin, 2 mg/ml lactalbumin hydrosylate and 0.5 μg/ml ascorbate. Cells were seeded at approximately 5000 cells/well (35 μl/well) in 384-well clear bottom, tissue culture treated plates. Steroid dose-response dilutions were prepared in steroid diluent (PBS containing 2.5% (v/v) DMSO and 0.05% (v/v) pluronic detergent) and 5 μl added to each well. The volume was made up to 50 μl per well with steroid diluent. Positive control wells contained 1 μM dexamethasone. Plates were incubated for approximately 18 hours at 37° C. in an air/5% CO2 atmosphere in a humidified incubator before Britelite reagent (10 μl; Perkin-Elmer) was added to each well. Each plate was incubated for 2 minutes in the dark and luminescence quantified using a LJL Biosystems Analyst luminometer. Data for test compounds (expressed as percentage of the dexamethasone positive control) were used to construct dose response curves from which EC50 values were estimated.

A short description of assay [2]: Inhibition of TNF-α release from LPS stimulated isolated human PBMC. The settings on record: Homo sapiens, PBMC, read-out: IC50 (nM) for inhibition of TNF-α release. It is filed as cell-based. On the procedure: The anti-inflammatory activity of the compounds against human leukocytes in vitro was also evaluated by determining inhibition of tumour necrosis factor-α (TNF-α) release from lipopolysaccharide (LPS) stimulated isolated human peripheral mononuclear cells (PBMC).
Peripheral venous blood from healthy, non-medicated donors was collected using ethylenediaminetetraacetic acid (EDTA) as the anti-coagulant. For PBMC preparation, samples of blood were diluted 1:1 with sterile phosphate buffered saline and then separated using ACCUSPIN™ System-Histopaque®-1077 tubes (Sigma-Aldrich, St Louis, Mo.), centrifuged at 400 g for 35 minutes. Buffy coat cells were removed into PBS, centrifuged at 200 g for 10 minutes and re-suspended in PBMC assay buffer (Hanks Balanced Salt Solution, 0.28% [w/v] 4-[2-hydroxyethyl]-1-piperazineethanesulfonic acid [HEPES], 0.01% [w/v] low-endotoxin bovine serum albumin [BSA]. A differential white cell count was performed and PBMC's diluted to 1×10^6 lymphocytes per ml in PBMC assay buffer.
Test compounds were dissolved in DMSO and diluted in PBMC assay buffer (final DMSO concentration 1%) to cover an appropriate concentration range, e.g 0.001 nM to 10000 nM. Samples of test compound solution or vehicle (20 μl) were added into 96-well tissue culture treated plates (Corning) and PBMC (160 μl) added to each well. The assay mixtures were incubated at 37° C. for 1 h in a humidified incubator containing an atmosphere of air supplemented with 5% CO2 before adding LPS (20 μl of 100 ng/ml for PBMC). Plates were returned to the incubator for a further 18 hours, and then centrifuged before recovery of samples of supernatant. TNF-α in the samples was determined using an enzyme-linked immunosorbent assay (ELISA) (Invitrogen kit no CHC-1754; Invitrogen Carlsbad, Calif.) and following the manufacturers instructions. Dose response curves were constructed from which IC50 values were calculated.

As usually defined, the EC50 is the concentration needed to bring the measured effect to its halfway point. In general, IC50 refers to the concentration that gives 50% inhibition. As to `C[C@]12C=CC(=O)C=C1CC[C@H]1[C@@H]3CC[C@](OC(=O)c4ccc(Sc5ccccc5)cc4)(C(=O)OCC#N)[C@@]3(C)C[C@H](O)[C@@]12F` [Example 8, cyanomethyl (11beta,17alpha)-9-fluoro-11-hydroxy-3-oxo-17-{[4-(phenylthio)benzoyl]oxy}androsta-1,4-diene-17-carboxylate], the EC50 in assay [1] was found to be 25 nM. The IC50 in assay [2] was determined as 0.292 nM.

Compound `C[C@]12C=CC(=O)C=C1[C@@H](F)C[C@H]1[C@@H]3CC[C@](OC(=O)c4ccc(SCc5ccc(O)cc5)cc4)(C(=O)OCC#N)[C@@]3(C)C[C@H](O)[C@@]12F` [Example 6, cyanomethyl (6alpha,11beta,17alpha)-6,9-difluoro-11-hydroxy-17-({4-[(4-hydroxybenzyl)thio]benzoyl}oxy)-3-oxoandrosta-1,4-diene-17-carboxylate] displayed a 50% effective concentration (EC50) in assay [1] of 23.5 nM. In addition, the half-inhibitory concentration (IC50) in assay [2] came to 0.207 nM.

`C[C@]12C=CC(=O)C=C1[C@@H](F)C[C@H]1[C@@H]3CC[C@](OC(=O)c4ccc(CSc5ccccc5)cc4)(C(=O)OCC#N)[C@@]3(C)C[C@H](O)[C@@]12F` [Example 5, cyanomethyl (6alpha,11beta,17alpha)-6,9-difluoro-11-hydroxy-3-oxo-17-({4-[(phenylthio)methyl]benzoyl}oxy)androsta-1,4-diene-17-carboxylate] showed an EC50 in assay [1] of 33.3 nM. In assay [2], the IC50 stood at 0.152 nM.

For `C[C@]12C=CC(=O)C=C1CC[C@H]1[C@@H]3CC[C@](OC(=O)c4ccc(OCc5ccccc5)cc4)(C(=O)CO)[C@@]3(C)C[C@H](O)[C@@]12F` [Example 32, (11beta)-9-fluoro-11,21-dihydroxy-3,20-dioxopregna-1,4-dien-17-yl 4-(benzyloxy)benzoate], the EC50 in assay [1] came to 36 nM. Further, the IC50 in assay [2] came out at 0.506 nM.

Turning to `C[C@]12C=CC(=O)C=C1CC[C@H]1[C@@H]3CC[C@](OC(=O)c4ccc(Sc5cccc(O)c5)cc4)(C(=O)OCC#N)[C@@]3(C)C[C@H](O)[C@@]12F` [Example 15, cyanomethyl(11beta,17alpha)-9-fluoro-11-hydroxy-17-({4-[(3-hydroxyphenyl)thio]-benzoyl}oxy)-3-oxoandrosta-1,4-diene-17-carboxylate], in assay [1], a half-maximal effect (EC50) was put at 35.1 nM. Further, the IC50 in assay [2] was determined as 0.164 nM.

Compound `C[C@]12C=CC(=O)C=C1[C@@H](F)C[C@H]1[C@@H]3CC[C@](OC(=O)c4ccc(Sc5ccccc5)cc4)(C(=O)OCC#N)[C@@]3(C)C[C@H](O)[C@@]12F` [Example 3, cyanomethyl (6alpha,11beta,17alpha)-6,9-difluoro-11-hydroxy-3-oxo-17-{[4-(phenylthio)benzoyl]oxy}androsta-1,4-diene-17-carboxylate] returned an EC50 in assay [1] of 50.5 nM. Also, the IC50 in assay [2] was determined as 0.143 nM.

`C[C@]12C=CC(=O)C=C1[C@@H](F)C[C@H]1[C@@H]3CC[C@](OC(=O)c4ccc(Cc5ccccc5)cc4)(C(=O)OCC#N)[C@@]3(C)C[C@H](O)[C@@]12F` [Example 1, cyanomethyl(6alpha,11beta,17alpha)-17-[(4-benzylbenzoyl)oxy]-6,9-difluoro-11-hydroxy-3-oxoandrosta-1,4-diene-17-carboxylate] displayed a concentration giving a half-maximal response (EC50) in assay [1] of 22.3 nM. In assay [2], the IC50 worked out at 0.095 nM.

In the case of `C[C@@H]1C[C@H]2[C@@H]3C[C@H](F)C4=CC(=O)C=C[C@]4(C)[C@@]3(F)[C@@H](O)C[C@]2(C)[C@@]1(OC(=O)c1ccc(Oc2ccc(Cl)c(O)c2)cc1)C(=O)OCC#N` [Example 42, Cyanomethyl (6alpha,11beta,16alpha,17alpha)-17-{[4-(4-chloro-3-hydroxyphenoxy)benzoyl]oxy}-6,9-difluoro-11-hydroxy-16-methyl-3-oxoandrosta-1,4-diene-17-carboxylate], the EC50 in assay [1] is 24.4 nM. Besides, the IC50 in assay [2] turned out to be 0.443 nM.

`C[C@]12C=CC(=O)C=C1CC[C@H]1[C@@H]3CC[C@](OC(=O)c4ccc(Oc5cccc(O)c5)cc4)(C(=O)OCC#N)[C@@]3(C)C[C@H](O)[C@@]12F` [Example 17, cyanomethyl (11beta,17alpha)-9-fluoro-11-hydroxy-17-{[4-(3-hydroxyphenoxy)benzoyl]oxy}-3-oxoandrosta-1,4-diene-17-carboxylate]: a half-maximal response in assay [1] (EC50) required 37.9 nM. The IC50 in assay [2] turned out to be 0.157 nM.

The compound `C[C@]12C=CC(=O)C=C1[C@@H](F)C[C@H]1[C@@H]3CC[C@](OC(=O)c4ccc(OCc5ccccc5)cc4)(C(=O)CO)[C@@]3(C)C[C@H](O)[C@@]12F` [Example 31, (6alpha,11beta)-6,9-difluoro-11,21-dihydroxy-3,20-dioxopregna-1,4-dien-17-yl 4-(benzyloxy)benzoate] came in with an EC50 in assay [1] of 102 nM. Also, in assay [2], the concentration for half-maximal inhibition (IC50) turned out to be 0.152 nM.

The compound `CSc1cccc(Sc2ccc(C(=O)O[C@]3(C(=O)SCF)CC[C@H]4[C@@H]5CCC6=CC(=O)C=C[C@]6(C)[C@@]5(F)[C@@H](O)C[C@@]43C)cc2)c1` [Example 23, (11beta,17alpha)-9-fluoro-17-{[(fluoromethyl)thio]carbonyl}-11-hydroxy-3-oxoandrosta-1,4-dien-17-yl 4-{[3-(methylthio)phenyl]thio}benzoate] gave an EC50 in assay [1] of 52.5 nM. In addition, the half-maximal inhibitory concentration (IC50) in assay [2] was found to be 0.536 nM.

As to `C[C@]12C=CC(=O)C=C1CC[C@H]1[C@@H]3CC[C@](OC(=O)c4ccc(Sc5ccc(O)c(Cl)c5)cc4)(C(=O)SCF)[C@@]3(C)C[C@H](O)[C@@]12F` [Example 27, (11beta,17alpha)-9-fluoro-17-[((fluoromethyl)thio]carbonyl)-11-hydroxy-3-oxoandrosta-1,4-dien-17-yl 4-[(3-chloro-4-hydroxyphenyl)thio]benzoate], the midpoint of the response in assay [1], the EC50, lay at 43.3 nM. In addition, the IC50 in assay [2] came out at 0.326 nM.

In turn, `CSc1ccc(Oc2ccc(C(=O)O[C@]3(C(=O)OCC#N)[C@H](C)C[C@H]4[C@@H]5C[C@H](F)C6=CC(=O)C=C[C@]6(C)[C@@]5(F)[C@@H](O)C[C@@]43C)cc2)cc1` [Example 48, Cyanomethyl (6alpha,11beta,16alpha, 17alpha)-6,9-difluoro-11-hydroxy-16-methyl-17-({4-[4-(methylthio)phenoxy]benzoyl}oxy)-3-oxoandrosta-1,4-diene-17-carboxylate] came in with an EC50 in assay [1] of 14.2 nM. For the same compound, in assay [2], the IC50 was found to be 0.09 nM.

In assay [1], `C[C@]12C=CC(=O)C=C1CC[C@H]1[C@@H]3CC[C@](OC(=O)c4ccc(Oc5ccc(O)c(Cl)c5)cc4)(C(=O)SCF)[C@@]3(C)C[C@H](O)[C@@]12F` [Example 26, (11beta, 17alpha)-9-fluoro-17-{[(fluoromethyl)thio]carbonyl}-11-hydroxy-3-oxoandrosta-1,4-dien-17-y1 4-(3-chloro-4-hydroxyphenoxy)-benzoate] yielded an EC50 of 42.6 nM. In assay [2], the IC50 was determined as 0.177 nM.
